Data from patent US20230365537A1, “POLO LIKE KINASE 4 INHIBITORS” (ORIC Pharmaceuticals, Inc., priority 2021, published 2023).

Assays:
[1] = molecular target: human recombinant Aurora B (Homo sapiens (Human), UniProt Q96GD4); experiment: Aurora B Kinase Biochemical Assay (ADP-Glo); conditions: ratio of Aurora B IC50 to PLK4 IC50 (selectivity)
Summary of the method: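 Recombinant human Aurora B (20 nM in pH 7.5 HEPES buffer with MgCl2, EGTA, DTT, Brij-35, BSA) preincubated with compound 15 min at RT. ADP formed quantified by ADP-Glo luminescence after ATP depletion (40 min) and detection (30 min). IC50 from four-parameter non-linear regression.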

human recombinant PLK4 = human recombinant PLK4 (Homo sapiens (Human), UniProt O00444); experiment: PLK4 Biochemical Assay (ADP-Glo); conditions: 0.5 nM PLK4, 8.0 µM ATP, 4.7 µM MBP, 6 hours at RT
Summary of the method: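 Recombinant human PLK4 (added at 1.0 nM) was preincubated 15 min at RT with compound in 50 mM HEPES pH 7.5, 10 mM MgCl2, 1 mM EGTA, 1 mM DTT, 0.01% Brij-35, 0.01% BSA. ADP formed was detected by ADP-Glo luminescence (40 min ATP depletion, 30 min detection). IC50 came from a four-parameter fit.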

CHP-134 cells = experiment: CHP134 CellTiter-Glo (CTG) Assay; assay type: cell-based; conditions: Homo sapiens, CHP-134, 120 h, 5 days, viable cells by CellTiter-Glo
Summary of the method: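 CHP-134 cells seeded at 200 cells/well for 16 h, then given nine 1:3 serial dilutions in quadruplicate at 37° C, 5% CO2. Viable cells measured by CellTiter-Glo luminescence after 5 days; IC50 calculated from curves.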

[2] = molecular target: human recombinant Aurora A (Homo sapiens (Human), UniProt O14965); experiment: Aurora A Kinase Biochemical Assay (ADP-Glo); conditions: ratio of Aurora A IC50 to PLK4 IC50 (selectivity)
human recombinant Aurora A, sequence (O14965 whole entry): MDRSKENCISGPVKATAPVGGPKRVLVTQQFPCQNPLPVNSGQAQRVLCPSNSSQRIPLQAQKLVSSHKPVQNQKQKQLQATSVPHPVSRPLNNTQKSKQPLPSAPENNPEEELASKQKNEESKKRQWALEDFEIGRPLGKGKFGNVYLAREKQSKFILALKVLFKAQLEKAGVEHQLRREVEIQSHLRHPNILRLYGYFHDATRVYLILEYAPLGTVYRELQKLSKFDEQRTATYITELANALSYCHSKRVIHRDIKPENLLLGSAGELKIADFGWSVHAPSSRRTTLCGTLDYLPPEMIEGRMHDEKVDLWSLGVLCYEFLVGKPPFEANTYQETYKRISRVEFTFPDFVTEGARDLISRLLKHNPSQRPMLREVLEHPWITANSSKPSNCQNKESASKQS

human recombinant PLK4, sequence (O00444 whole entry): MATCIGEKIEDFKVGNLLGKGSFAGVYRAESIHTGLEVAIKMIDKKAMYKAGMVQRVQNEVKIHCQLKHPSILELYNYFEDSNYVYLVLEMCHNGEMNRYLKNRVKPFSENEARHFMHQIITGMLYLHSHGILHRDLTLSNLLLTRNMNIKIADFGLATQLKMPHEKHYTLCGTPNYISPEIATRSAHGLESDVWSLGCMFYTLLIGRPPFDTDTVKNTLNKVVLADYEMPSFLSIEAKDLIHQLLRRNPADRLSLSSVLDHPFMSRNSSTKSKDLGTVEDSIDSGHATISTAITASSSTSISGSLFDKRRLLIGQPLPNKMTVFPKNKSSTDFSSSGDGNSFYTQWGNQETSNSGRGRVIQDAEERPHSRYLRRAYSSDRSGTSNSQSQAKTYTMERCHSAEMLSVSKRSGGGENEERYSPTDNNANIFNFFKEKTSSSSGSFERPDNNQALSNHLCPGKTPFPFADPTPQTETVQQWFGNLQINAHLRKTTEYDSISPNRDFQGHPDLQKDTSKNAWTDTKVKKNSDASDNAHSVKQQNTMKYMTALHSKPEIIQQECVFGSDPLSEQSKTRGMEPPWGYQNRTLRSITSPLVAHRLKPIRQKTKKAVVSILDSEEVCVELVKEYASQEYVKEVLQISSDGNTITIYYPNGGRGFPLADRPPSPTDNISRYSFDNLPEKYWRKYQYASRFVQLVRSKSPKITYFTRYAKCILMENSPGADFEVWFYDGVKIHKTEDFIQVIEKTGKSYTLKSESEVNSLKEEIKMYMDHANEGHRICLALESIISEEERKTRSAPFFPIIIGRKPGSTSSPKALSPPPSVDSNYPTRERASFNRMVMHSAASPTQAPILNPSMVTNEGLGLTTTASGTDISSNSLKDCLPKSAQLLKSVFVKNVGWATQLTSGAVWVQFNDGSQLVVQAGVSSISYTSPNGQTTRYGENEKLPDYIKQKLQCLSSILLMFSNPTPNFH
human recombinant Aurora B, sequence (Q96GD4 whole entry): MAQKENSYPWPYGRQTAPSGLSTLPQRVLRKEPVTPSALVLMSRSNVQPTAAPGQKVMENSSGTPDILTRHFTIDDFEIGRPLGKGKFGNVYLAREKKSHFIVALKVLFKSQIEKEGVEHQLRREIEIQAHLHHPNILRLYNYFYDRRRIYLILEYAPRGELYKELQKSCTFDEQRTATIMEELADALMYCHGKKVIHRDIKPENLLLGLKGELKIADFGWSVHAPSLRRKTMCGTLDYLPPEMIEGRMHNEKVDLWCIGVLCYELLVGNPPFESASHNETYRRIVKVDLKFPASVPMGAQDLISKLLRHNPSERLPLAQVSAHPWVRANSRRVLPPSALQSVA

Compound	[Aurora B IC50 (nM)]/[PLK4 IC50 (nM)] [1]	IC50 (human recombinant PLK4) [µM]	IC50 (CHP-134 cells) [µM]	[Aurora A IC50 (nM)]/[PLK4 IC50 (nM)] [2]
COc1ccc2c(c1)[C@]1(C[C@H]1c1ccc3c(Nc4nc(C)ncc4C4CC4)n[nH]c3c1)C(=O)N2 [Example 140, (1R,2S)-2-{3-[(5-cyclopropyl-2-methylpyrimidin-4-yl)amino]-1H-indazol-6-yl}-5′-methoxyspiro[cyclopropane-1,3′-indol]-2′(1′H)-one]	537	0.0166	7.76	814
COc1ccc2c(c1)[C@]1(C[C@H]1c1ccc3c(Nc4cc(C)c(C(=O)N(C)C)nc4OC)n[nH]c3c1)C(=O)N2 [Example 238, 6-methoxy-5-({6-[(1R,2S)-5′-methoxy-2′-oxo-1′,2′-dihydrospiro[cyclopropane-1,3′-indol]-2-yl]-1H-indazol-3-yl}amino)-N,N,3-trimethylpyridine-2-carboxamide]	582.2189	0.00136	0.133	536.1
COc1ccc2c(c1)[C@]1(C[C@H]1c1ccc3c(Nc4ccc(C(=O)NCC5CC5)nc4OC)n[nH]c3c1)C(=O)N2 [Example 230, N-(cyclopropylmethyl)-6-methoxy-5-({6-[(1R,2S)-5′-methoxy-2′-oxo-1′,2′-dihydrospiro[cyclopropane-1,3′-indol]-2-yl]-1H-indazol-3-yl}amino)pyridine-2-carboxamide]	213.4346	0.00243	0.395	12432.2103
COc1ccc2c(c1)[C@]1(C[C@H]1c1ccc3c(Nc4ncnc(N5CCOCC5)c4OC)n[nH]c3c1)C(=O)N2C [Example 113, (1R,2S)-5′-methoxy-2-(3-{[5-methoxy-6-(morpholin-4-yl)pyrimidin-4-yl]amino}-1H-indazol-6-yl)-1′-methylspiro[cyclopropane-1,3′-indol]-2′(1′H)-one]	231.7370	0.0106	2.52	1888.2629
COc1ccc2c(c1)[C@]1(C[C@H]1c1ccc3c(Nc4ncc(S(C)(=O)=O)cc4Cl)n[nH]c3c1)C(=O)N2 [Example 247, (1R,2S)-2-(3-{[3-chloro-5-(methanesulfonyl)pyridin-2-yl]amino}-1H-indazol-6-yl)-5′-methoxyspiro[cyclopropane-1,3′-indol]-2′(1′H)-one]	423.6743	0.00373	1.01	1434.9223
COc1ccc2c(c1)[C@]1(C[C@H]1c1ccc3c(Nc4ncc(S(=O)(=O)NC5(C)COC5)cc4OC)n[nH]c3c1)C(=O)N2 [Example 269, 5-methoxy-6-({6-[(1R,2S)-5′-methoxy-2′-oxo-1′,2′-dihydrospiro[cyclopropane-1,3′-indol]-2-yl]-1H-indazol-3-yl}amino)-N-(3-methyloxetan-3-yl)pyridine-3-sulfonamide]	138.7640	0.00089	1.35	191.7977
COc1ccc2c(c1)[C@]1(C[C@H]1c1ccc3c(Nc4ncc(S(=O)(=O)N5CCC5)cc4OC)n[nH]c3c1)C(=O)N2 [Example 268, (1R,2S)-2-(3-{[5-(azetidine-1-sulfonyl)-3-methoxypyridin-2-yl]amino}-1H-indaxol-6-yl)-5′-methoxyspiro[cyclopropane-1,3′-indol]-2′(1′H)-one]	769.9084	0.000874	0.123	1159
COc1ccc2c(c1)[C@]1(C[C@H]1c1ccc3c(Nc4nc5cccnc5cc4OC)n[nH]c3c1)C(=O)N2 [Example 217, (1R,2S)-5′-methoxy-2-{3-[(3-methoxy-1,5-naphthyridin-2-yl)amino]-1H-indazol-6-yl}spiro[cyclopropane-1,3′-indol]-2′(1′H)-one]	170.9840	0.00119	0.45	416.7367
COc1ccc2c(c1)[C@]1(C[C@H]1c1ccc3c(Nc4nc(Cl)nc5ccn(C)c45)n[nH]c3c1)C(=O)N2 [Example 171, (1R,2S)-2-{3-[(2-chloro-5-methyl-5H-pyrrolo[3,2-d]pyrimidin-4-yl)amino]-1H-indazol-6-yl}-5′-methoxyspiro[cyclopropane-1,3′-indol]-2′(1′H)-one]	259.2403	0.00587	1.52	1176.6309
COc1ccc2c(c1)[C@]1(C[C@H]1c1ccc3c(Nc4ncnc(N5C[C@@H](C)O[C@@H](C)C5)c4OC)n[nH]c3c1)C(=O)N2 [Example 52, (lR,2S)-2-[3-({6-[(2R,6S)-2,6-dimethylmorpholin-4-yl]-5-methoxypyrimidin-4-yl}amino)-1H-indazol-6-yl]-5′-methoxyspiro[cydopropane-1,3′-indol]-2′(1′H)-one]	55.0706	0.00701	2.26	2009.699
COc1ccc2c(c1)[C@]1(C[C@H]1c1ccc3c(Nc4nc(C5COC5)cnc4OC)n[nH]c3c1)C(=O)N2 [Example 100, (1R,2S)-5′-methoxy-2-(3-{[3-methoxy-6-(oxetan-3-yl)pyrazin-2-yl]amino}-1H-indazol-6-yl)spiro[cyclopropane-1,3′-indol]-2′(l′H)-one]	230.4498	0.00173	0.567	382.0069
COc1ccc2c(c1)[C@]1(C[C@H]1c1ccc3c(Nc4nc(C)ncc4OC(F)F)n[nH]c3c1)C(=O)N2 [Example 121, (1R,2S)-2-(3-{[5-(difluoromethoxy)-2-methylpyrimidin-4-yl]amino}-1H-indazol-6-yl)-5′-methoxyspiro[cyclopropane-1,3′-indol]-2′(1′H)-one]	230.8807	0.00179	5.32	875.6967
COc1ccc2c(c1)[C@]1(C[C@H]1c1ccc3c(Nc4ccc(C(=O)N5CC6(COC6)C5)nc4OC)n[nH]c3c1)C(=O)N2 [Example 188, (1R,2S)-5′-methoxy-2-(3-{[2-methoxy-6-(2-oxa-6-azaspiro[3.3]heptane-6-carbonyl)pyridin-3-yl]amino}-1H-indazol-6-yl)spiro[cyclopropane-1,3′-indol]-2′(1′H)-one]	191.7065	0.00627	0.76	7974.4817
COc1ccc2c(c1)[C@]1(C[C@H]1c1ccc3c(Nc4nc(N5CCS(=O)(=O)CC5)ncc4OC)n[nH]c3c1)C(=O)N2 [Example 190, 4-[5-methoxy-4-({6-[(1R,2S)-5′-methoxy-2′-oxo-1′,2′-dihydrospiro[cyclopropane-1,3′-indol]-2-yl]-1H-indazol-3-yl}amino)pyrimidin-2-yl]-1λ6-thiomorpholine-1,1-dione]	279.1432	0.00266	5.12	129.5378
COc1ccc2c(c1)[C@]1(C[C@H]1c1ccc3c(Nc4ccc(C)nc4OC)n[nH]c3c1)C(=O)N2 [Example 150, (1R,2S)-5′-methoxy-2-{3-[(2-methoxy-6-methylpyridin-3-yl)amino]-1H-indazol-6-yl}spiro[cyclopropane-1,3′-indol]-2′(1′H)-one]	366.7569	0.00813	3.16	720.7185
CCS(=O)(=O)c1ccc(Nc2n[nH]c3cc([C@@H]4C[C@@]45C(=O)Nc4ccc(OC)cc45)ccc23)c(OC)n1 [Example 209, (1R,2S)-2-(3-{[6-(ethanesulfonyl)-2-methoxypyridin-3-yl]amino}-1H-indazol-6-yl)-5′-methoxyspiro[cyclopropane-1,3′-indol]-2′(1′H)-one]	254.6519	0.00154	0.606	273.2595
CCN1C(=O)[C@@]2(C[C@H]2c2ccc3c(Nc4ncnc(N5CC(O)C5)c4Cl)n[nH]c3c2)c2cc(OC)ccc21 [Example 108, (1R,2S)-2-(3-{[5-chloro-6-(3-hydroxyazetidin-1-yl)pyrimidin-4-yl]amino}-1H-indazol-6-yl)-1′-ethyl-5′-methoxyspiro[cyclopropane-1,3′-indol]-2′(1′H)-one]	230.6459	0.00437	1.09	3889.143
COc1ccc2c(c1)[C@]1(C[C@H]1c1ccc3c(Nc4ccc(C(=O)N5CCOCC5)nc4OC)n[nH]c3c1)C(=O)N2 [Example 183, (1R,2S)-5′-methoxy-2-(3-{[2-methoxy-6-(morpholine-4-carbonyl)pyridin-3-yl]amino}-1H-indazol-6-yl)spiro(cyclopropane-1,3′-indol]-2′(1′H)-one]	322.5703	0.00125	0.125	534.2169
